Test results from patent US9675614B2, “PRMT5 inhibitors and uses thereof” (Epizyme, Inc., priority 2012, dated 2017).

Biological target: PRMT5/MEP50 (Homo sapiens (Human), UniProt O14744)
Experiment: PRMT5 Biochemical Assay (PRMT5/MEP50 enzyme assay on peptide substrate, 3H-SAM Flashplate)
Conditions: PRMT5/MEP50 biochemical assay; read-out: Biochemical IC50
From the text: S-adenosylmethionine (SAM), S-adenosylhomocysteine (SAH), bicine, KCl, Tween20, dimethylsulfoxide (DMSO), bovine skin gelatin (BSG), and Tris(2-carboxyethyl)phosphine hydrochloride solution (TCEP) were purchased from Sigma-Aldrich at the highest level of purity possible. ^3H-SAM was purchase from American Radiolabeled Chemicals with a specific activity of 80 Ci/mmol. 384-well streptavidin Flashplates were purchased from PerkinElmer.
Peptide representative of human histone H4 residues 1-15 was synthesized with a C-terminal linker-affinity tag motif and a C-terminal amide cap by 21st Century Biochemicals. […] The sequence was Ac-[…][K-Biot]amide (SEQ ID NO.:3).
Full-length human MEP50 (NM_024102) clone was amplified from a human testis cDNA library incorporating a 5′ sequence encoding a 6-histidine tag (MHHHHHH) (SEQ ID NO.:5) fused directly to Arg 2 of MEP50. The amplified genes were subcloned into pENTR/D/TEV (Life Technologies) and subsequently transferred by Gateway™ attL×attR recombination to pDEST8 baculvirus expression vector (Life Technologies).
Recombinant baculovirus and Baculovirus-Infected Insect Cells (BIIC) were generated according to Bac-to-Bac kit instructions (Life Technologies) and Wasilko, 2006, respectively. Protein over-expression was accomplished by infecting exponentially growing Spodoptera frugiperda (SF9) cell culture at 1.2×10^6 cell/ml with a 5000 fold dilution of BIIC stock. Infections were carried out at 27° C. for 72 hours, harvested by centrifugation, and stored at −80° C. for purification.
Flag-PRMT5/6His-MeP50 was eluted with 300 mM Imidazole in the same buffer. […] Reference: Wasilko, D. J. and S. E. Lee: “TIPS: titerless infected-cells preservation and scale-up” Bioprocess J., 5 (2006), pp. 29-32.
General Procedure for PRMT5/MEP50 Enzyme Assays on Peptide Substrates.
The assays were all performed in a buffer consisting of 20 mM Bicine (pH=7.6), 1 mM TCEP, 0.005% BSG, and 0.002% Tween20, prepared on the day of use. Compounds in 100% DMSO (1 ul) were spotted into a polypropylene 384-well V-bottom plates (Greiner) using a Platemate Plus outfitted with a 384-channel head (Thermo Scientific). DMSO (1 ul) was added to Columns 11, 12, 23, 24, rows A-H for the maximum signal control and 1 ul of SAH, a known product and inhibitor of PRMT5/MEP50, was added to columns 11, 12, 23, 24, rows I-P for the minimum signal control. A cocktail (40 ul) containing the PRMT5/MEP50 enzyme and the peptide was added by Multidrop Combi (Thermo-Fisher). The compounds were allowed to incubate with PRMT5/MEP50 for 30 min at 25 degrees Celsius, then a cocktail (10 ul) containing ^3H-SAM was added to initiate the reaction (final volume=51 ul). The final concentrations of the components were as follows: PRMT5/MEP50 was 4 nM, ^3H-SAM was 75 nM, peptide was 40 nM, SAH in the minimum signal control wells was 100 uM, and the DMSO concentration was 1%. The assays were stopped by the addition of non-radioactive SAM (10 ul) to a final concentration of 600 uM, which dilutes the ^3H-SAM to a level where its incorporation into the peptide substrate is no longer detectable. 50 ul of the reaction in the 384-well polypropylene plate was then transferred to a 384-well Flashplate and the biotinylated peptides were allowed to bind to the streptavidin surface for at least 1 hour before being washed three times with 0.1% Tween20 in a Biotek ELx405 plate washer. The plates were then read in a PerkinElmer TopCount plate reader to measure the quantity of ^3H-labeled peptide bound to the Flashplate surface, measured as disintegrations per minute (dpm) or alternatively, referred to as counts per minute (cpm).
[formula] Where dpm=disintegrations per minute, cmpd=signal in assay well, and min and max are the respective minimum and maximum signal controls.
[formula] Where top and bottom are the normally allowed to float, but may be fixed at 100 or 0 respectively in a 3-parameter fit.

PRMT5/MEP50, sequence (O14744 other isoform, or with tags, fused parts or gaps): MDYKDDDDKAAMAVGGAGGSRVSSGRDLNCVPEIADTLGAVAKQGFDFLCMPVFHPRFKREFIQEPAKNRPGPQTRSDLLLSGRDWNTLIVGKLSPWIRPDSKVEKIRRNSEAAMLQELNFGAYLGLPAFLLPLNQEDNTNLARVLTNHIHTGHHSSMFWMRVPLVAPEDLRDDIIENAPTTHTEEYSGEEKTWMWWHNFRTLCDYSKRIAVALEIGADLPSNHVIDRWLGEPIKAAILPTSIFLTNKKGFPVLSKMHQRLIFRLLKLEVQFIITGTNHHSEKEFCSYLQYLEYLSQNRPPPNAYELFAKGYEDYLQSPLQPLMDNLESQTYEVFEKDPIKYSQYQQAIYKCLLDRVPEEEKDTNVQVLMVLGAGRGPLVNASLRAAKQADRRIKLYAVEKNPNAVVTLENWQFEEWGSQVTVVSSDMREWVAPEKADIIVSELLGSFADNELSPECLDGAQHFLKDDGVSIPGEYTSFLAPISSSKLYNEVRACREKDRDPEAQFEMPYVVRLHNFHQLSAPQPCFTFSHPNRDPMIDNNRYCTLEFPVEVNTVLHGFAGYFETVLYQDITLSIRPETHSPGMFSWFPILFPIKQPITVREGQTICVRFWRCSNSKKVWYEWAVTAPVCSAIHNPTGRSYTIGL
PRMT5/MEP50, sequence (Q9BQA1 other isoform, or with tags, fused parts or gaps partner): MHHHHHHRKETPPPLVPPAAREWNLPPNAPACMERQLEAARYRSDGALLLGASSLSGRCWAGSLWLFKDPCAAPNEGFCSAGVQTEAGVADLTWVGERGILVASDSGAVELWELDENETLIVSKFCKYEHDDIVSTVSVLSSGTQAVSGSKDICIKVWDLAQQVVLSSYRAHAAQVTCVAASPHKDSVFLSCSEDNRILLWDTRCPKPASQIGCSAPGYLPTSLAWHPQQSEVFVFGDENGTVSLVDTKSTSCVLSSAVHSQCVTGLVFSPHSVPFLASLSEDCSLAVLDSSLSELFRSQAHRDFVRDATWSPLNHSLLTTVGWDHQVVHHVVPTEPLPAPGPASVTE

| SMILES | IC50 [nM] |
| --- | --- |
| O=C(NC[C@H](O)CN1CCc2ccccc2C1)c1cccc(NC2CCN(CC(F)(F)F)CC2)c1 [Compound 217] | < 100 |
| CC(c1cccc(C(=O)NCC(O)CN2CCc3ccccc3C2)c1)N1CCN(C)CC1 (centres unmarked) [Compound 161] | < 100 |
| O=C(NC[C@H](O)CN1CCc2ccccc2C1)c1cncc(OC2CCNCC2)c1 [Compound 260] | < 100 |
| CC(=O)N1CC(Nc2cc(C(=O)NC[C@H](O)CN3CCc4ccccc4C3)ncn2)C1 [Compound 284, (S)-6-((1-acetylazetidin-3-yl)amino)-N-(3-(3,4-dihydroisoquinolin-2(1H)-yl)-2-hydroxypropyl)pyrimidine-4-carboxamide] | < 100 |
| CS(=O)(=O)N1CCN(Cc2cccc(C(=O)NCC(O)CN3CCc4ccccc4C3)c2)CC1 (centres unmarked) [Compound 91] | < 100 |
| COc1ccc(NC2CCOCC2)cc1C(=O)NCC(O)CN1CCc2ccccc2C1 (centres unmarked) [Compound 77] | < 100 |
| O=C(NCC(O)CN1CCc2ccccc2C1)c1cc(Cl)cc(NC2CCOCC2)c1 (centres unmarked) [Compound 64] | < 100 |
| O=C(NC[C@H](O)CN1CCc2ccccc2C1)c1ccc2c(c1)OCO2 [Compound 244] | < 100 |
| CN1CCC(Nc2cc(C(=O)NC[C@H](O)CN3CCc4ccccc4C3)ccn2)C1 (some centres unmarked) [Compound 255] | < 100 |
| CC(=O)NCCN1CCN(Cc2cccc(C(=O)NCC(O)CN3CCc4ccccc4C3)c2)CC1 (centres unmarked) [Compound 156] | < 100 |
| O=C(NC[C@H](O)CN1CCc2ccccc2C1)c1cnc2ccccc2c1 [Compound 317] | < 100 |
| O=C(NCC(O)CN1CCc2ccccc2C1)c1ccc(NC2CCOCC2)cc1 (centres unmarked) [Compound 66] | < 100 |
| CC(=O)N1CC(Nc2cc(C(=O)NC[C@H](O)CN3CCc4ccccc4C3)ccn2)C1 [Compound 279] | < 100 |
| CN1CCOC(CNc2cc(C(=O)NC[C@H](O)CN3CCc4ccccc4C3)ccn2)C1 (some centres unmarked) [Compound 265] | < 100 |
| CC(=O)N1CCC(Nc2cc(C(=O)NC[C@H](O)CN3CCc4ccccc4C3)ncn2)C1 (some centres unmarked) [Compound 210] | < 100 |
| CS(=O)(=O)N1CCC(Nc2cccc(C(=O)NC[C@H](O)CN3CCc4ccccc4C3)c2)CC1 [Compound 216] | < 100 |
| CS(=O)(=O)N1CC(Nc2cc(C(=O)NC[C@H](O)CN3CCc4ccccc4C3)ncn2)C1 [Compound 283] | < 100 |
| O=C(NCC(O)CN1CCc2ccccc2C1)c1ccc(NC2CCNCC2)cc1 (centres unmarked) [Compound 138] | < 100 |
| CC(=O)N1CCC(Oc2ccc(C(=O)NCC(O)CN3CCc4ccccc4C3)cc2)CC1 (centres unmarked) [Compound 107] | < 100 |
| CC(=O)N1CCC(Nc2cc(C(=O)NC[C@H](O)CN3CCc4ccccc4C3)ccn2)C1 (some centres unmarked) [Compound 228] | < 100 |
| Cn1cc(C(=O)NC[C@H](O)CN2CCc3ccccc3C2)c2ccccc21 [Compound 246] | < 100 |
| CC(=O)N(C)CCN1CCN(Cc2cccc(C(=O)NCC(O)CN3CCc4ccccc4C3)c2)CC1 (centres unmarked) [Compound 252] | < 100 |
| O=C(NCC(O)CN1CCc2ccccc2C1)c1cc(NC2CCOCC2)n[nH]1 (centres unmarked) [Compound 169] | < 100 |

Results, then the molecule that gave them:

| IC50 [nM] | SMILES |
| --- | --- |
| 1000 to 10000 | O=C(NC[C@H](O)CN1CCc2ccccc2C1)c1ccc2[nH]ccc2c1 [Compound 270] |
| < 100 | O=C(NC[C@H](O)CN1CCc2ccccc2C1)c1ccc2c(c1)CCCC2 [Compound 247] |
| < 100 | CC(C)N1CCC(Oc2ccc(C(=O)NCC(O)CN3CCc4ccccc4C3)cc2)C1 (centres unmarked) [Compound 196] |
| < 100 | CN(c1cc(C(=O)NC[C@H](O)CN2CCc3ccccc3C2)ncn1)C1CCOCC1 [Compound 261] |
| < 100 | O=C(NC[C@H](O)CN1CCc2ccccc2C1)c1cc(NC2CCOC2)ncn1 (some centres unmarked) [Compound 230] |
| < 100 | Cc1cnc(NC2CCOCC2)cc1C(=O)NC[C@H](O)CN1CCc2ccccc2C1 [Compound 307] |
| < 100 | CC1CC(Nc2cccc(C(=O)NC[C@@H](O)CN3CCc4ccccc4C3)c2)CC(C)O1 (some centres unmarked) [Compound 153] |
| < 100 | CN(CCOc1cccc(C(=O)NCC(O)CN2CCc3ccccc3C2)c1)CC(N)=O (centres unmarked) [Compound 277] |
| < 100 | O=C(NCC(O)CN1CCc2ccccc2C1)c1cccc(CNC2CCOCC2)c1 (centres unmarked) [Compound 15, N-(3-(3,4-dihydroisoquinolin-2(1H)-yl)-2-hydroxypropyl)-3-(((tetrahydro-2H-pyran-4-yl)amino)methyl)benzamide] |
| < 100 | CS(=O)(=O)N1CCC(Nc2cncc(C(=O)NC[C@H](O)CN3CCc4ccccc4C3)c2)CC1 [Compound 301] |
| < 100 | COCCCOc1ccc(C(=O)NCC(O)CN2CCc3ccccc3C2)cc1 (centres unmarked) [Compound 146] |
| < 100 | CN(C)CCOc1cc(C(=O)NC[C@H](O)CN2CCc3ccccc3C2)ccn1 [Compound 234] |
| < 100 | O=C(NCC(O)CN1CCc2ccccc2C1)c1ccc2ncccc2c1 (centres unmarked) [Compound 68] |
| 101 to 1000 | CNC(=O)CNCc1cccc(C(=O)NCC(O)CN2CCc3ccccc3C2)c1 (centres unmarked) [Compound 117] |
| < 100 | CCN(c1cccc(C(=O)NCC(O)CN2CCc3ccccc3C2)c1C)C1CCOCC1 (centres unmarked) [Compound 41] |
| < 100 | CN1CCC(Nc2cc(C(=O)NC[C@H](O)CN3CCc4ccccc4C3)ccn2)CC1 [Compound 223] |
| < 100 | CN1CCC(CNc2cc(C(=O)NC[C@H](O)CN3CCc4ccccc4C3)ccn2)CC1 [Compound 292] |

| IC50 [nM] | SMILES |
| --- | --- |
| < 100 | CC(=O)N(C)CCNc1cc(C(=O)NC[C@H](O)CN2CCc3ccccc3C2)ccn1 [Compound 315] |
| < 100 | O=C(NCC(O)CN1CCc2ccccc2C1)c1ccnc(NC2CCOCC2)n1 (centres unmarked) [Compound 62] |
| < 100 | CN(C)CCNc1cc(C(=O)NC[C@H](O)CN2CCc3ccccc3C2)ccn1 [Compound 214] |
| < 100 | O=C(NCC(O)CN1CCc2ccccc2C1)c1ccc(OC2CCN(CC(F)(F)F)C2)cc1 (centres unmarked) [Compound 199] |
| 101 to 1000 | Cn1ccc(C(=O)NCC(O)CN2CCc3ccccc3C2)n1 (centres unmarked) [Compound 149] |
| < 100 | O=C(NCC(O)CN1CCc2ccccc2C1)c1cccc(OCCN2CCOCC2)c1 (centres unmarked) [Compound 133] |
| 101 to 1000 | O=C(NC[C@H](O)CN1CCc2ccccc2C1)c1cc(OC2CCN(CC(F)(F)F)CC2)ncn1 [Compound 285] |
| < 100 | NC(=O)CCCN1CCN(Cc2cccc(C(=O)NCC(O)CN3CCc4ccccc4C3)c2)CC1 (centres unmarked) [Compound 159] |
| < 100 | O=C(NCC(O)CN1CCc2ccccc2C1)c1ccc(NC2CCN(CC(F)(F)F)CC2)cc1 (centres unmarked) [Compound 128] |
| < 100 | Cn1nccc1-c1cccc(C(=O)NCC(O)CN2CCc3ccccc3C2)c1 (centres unmarked) [Compound 2, N-(3-(3,4-dihydroisoquinolin-2(1H)-yl)-2-hydroxypropyl)-3-(1-methyl-1H-pyrazol-5-yl)benzamide] |
| < 100 | O=C(NCC(O)CN1CCc2ccccc2C1)c1cccc(N2CCOCC2)c1 (centres unmarked) [Compound 14, N-(3-(3,4-dihydroisoquinolin-2(1H)-yl)-2-hydroxypropyl)-3-morpholinobenzamide] |
| < 100 | O=C(NC[C@@H](O)CN1CCc2ccccc2C1)c1ccc2ncccc2c1 [Compound 218] |
| < 100 | CN(C[C@H](O)CN1CCc2ccccc2C1)C(=O)c1cccc(NC2CCOCC2)c1 [Compound 111] |
| < 100 | CS(=O)(=O)N1CCC(Nc2cc(C(=O)NC[C@H](O)CN3CCc4ccccc4C3)ccn2)CC1 [Compound 225] |
| < 100 | Cn1nc(NC2CCOCC2)cc1C(=O)NCC(O)CN1CCc2ccccc2C1 (centres unmarked) [Compound 311] |
| < 100 | O=C(NCC(O)CN1CCc2ccccc2C1)c1ccc(CN2CCOCC2)cc1 (centres unmarked) [Compound 145] |
